The record followed here is ChEMBL document CHEMBL1126858, “Synthesis of (R,S)-trans-8-hydroxy-2-[N-n-propyl-N-(3'-iodo-2'-propenyl)amino]tetral in (trans-8-OH-PIPAT): a new 5-HT1A receptor ligand” (J Med Chem, 1993).

Data set [1] has as its target T1, 5-hydroxytryptamine receptor 1A (Rattus norvegicus, UniProt P19327).
T1 sequence (P19327 whole entry): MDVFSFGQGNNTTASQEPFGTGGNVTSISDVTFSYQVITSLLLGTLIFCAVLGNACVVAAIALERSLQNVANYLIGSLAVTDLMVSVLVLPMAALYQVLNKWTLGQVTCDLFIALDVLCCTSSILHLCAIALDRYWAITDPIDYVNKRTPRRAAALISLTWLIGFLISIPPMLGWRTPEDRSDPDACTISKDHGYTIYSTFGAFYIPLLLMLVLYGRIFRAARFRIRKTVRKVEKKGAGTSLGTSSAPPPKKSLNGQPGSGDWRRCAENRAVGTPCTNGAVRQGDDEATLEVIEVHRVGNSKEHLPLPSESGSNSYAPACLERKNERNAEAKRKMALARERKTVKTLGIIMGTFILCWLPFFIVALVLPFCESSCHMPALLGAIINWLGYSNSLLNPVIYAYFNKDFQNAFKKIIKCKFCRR
Description: Binding affinity towards 5-hydroxytryptamine 1A receptor by the displacement of [125I]trans-8-OH-PIPAT in membrane homogenates of hippocampal tissue of rat brain. The class given is tissue-based, Hippocampus.

The nature of data set [2]: Hill coefficient of the compound. The class given is ADME.
The target of a further data set is D(2) dopamine receptor (Homo sapiens, UniProt P14416). Description: Inhibitory activity against [125I]- NCQ298 binding to dopamine receptor D2 in Sf 9 cells. The class given is cell-based.
The target in the next data set is D(3) dopamine receptor (Rattus norvegicus, UniProt P19020). Briefly: Inhibitory activity against [125I]- NCQ298 binding to dopamine receptor D3 in Sf 9 cells. The class given is cell-based.
Another data set is filed under the species Rattus norvegicus. Description: Inhibitory activity against (125I)-(R,S)-trans-8-OH-PIPAT binding to the rat hippocampal homogenate. The class given is functional, Hippocampus.

D(3) dopamine receptor, sequence (P19020 whole entry): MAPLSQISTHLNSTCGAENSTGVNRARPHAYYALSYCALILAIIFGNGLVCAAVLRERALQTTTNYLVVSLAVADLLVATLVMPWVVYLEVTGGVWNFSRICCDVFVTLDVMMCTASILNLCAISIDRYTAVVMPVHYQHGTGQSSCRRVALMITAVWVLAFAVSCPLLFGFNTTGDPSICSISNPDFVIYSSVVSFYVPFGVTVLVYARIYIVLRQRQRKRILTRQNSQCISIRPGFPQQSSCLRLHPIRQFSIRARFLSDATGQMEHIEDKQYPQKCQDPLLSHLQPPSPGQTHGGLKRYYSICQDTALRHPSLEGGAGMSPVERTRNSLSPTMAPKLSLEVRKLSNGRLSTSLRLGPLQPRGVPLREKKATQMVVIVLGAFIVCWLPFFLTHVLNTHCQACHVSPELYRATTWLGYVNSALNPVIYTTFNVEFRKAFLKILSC
D(2) dopamine receptor, sequence (P14416 whole entry): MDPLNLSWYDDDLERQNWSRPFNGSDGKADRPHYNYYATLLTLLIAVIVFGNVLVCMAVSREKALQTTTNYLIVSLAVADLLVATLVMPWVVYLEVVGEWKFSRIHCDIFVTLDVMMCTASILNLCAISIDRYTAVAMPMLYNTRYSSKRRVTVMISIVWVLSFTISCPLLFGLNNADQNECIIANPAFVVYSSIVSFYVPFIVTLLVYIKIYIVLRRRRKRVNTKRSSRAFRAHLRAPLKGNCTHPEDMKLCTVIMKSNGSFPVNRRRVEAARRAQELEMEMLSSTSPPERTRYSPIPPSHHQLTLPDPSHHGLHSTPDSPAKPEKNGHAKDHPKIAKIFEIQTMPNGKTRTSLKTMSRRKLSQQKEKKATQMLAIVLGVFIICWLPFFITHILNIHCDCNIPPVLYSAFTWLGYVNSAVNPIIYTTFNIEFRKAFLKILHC

`COc1cccc(OC)c1OCCNCC1COc2ccccc2O1` (configuration not stated): the Ki in data set [1] was 2.68 nM.
With `CCCN(C/C=C/I)C1CCc2ccc(O)cc2C1` (racemic), the Hill coefficient in data set [2] worked out at 0.9.
Take `CCCN(C/C=C/I)C1CCc2cccc(O)c2C1` (racemic): the Ki in data set [1] turned out to be 0.3 nM; at D(2) dopamine receptor, 1070 nM; at D(3) dopamine receptor, 125 nM. Moreover, the Hill coefficient in data set [2] is 0.85.
`CCCN(CCC)C1CCc2ccc(O)cc2C1` (racemic): affinity in data set [1] was put at a Ki of 72.7 nM. Further, the Hill coefficient in data set [2] is listed as 0.82.
For the compound `CCCN(CCC)C1CCc2cccc(O)c2C1` (racemic) [8-OH-DPAT], the Hill coefficient in data set [2] turned out to be 0.83. The Ki on D(3) dopamine receptor stood at 251 nM; in the data set filed under Rattus norvegicus it was 0.91 nM.
Consider `CC(C)NCC(O)COc1cccc2ccccc12` (racemic) [PROPRANOLOL], for which the Hill coefficient in data set [2] was determined as 0.99.
On to `NCCc1ccc(O)c(O)c1` [DOPAMINE], for which, in data set [1], the inhibition constant Ki is over 10000 nM.
For the compound `O=C(c1ccc(F)cc1)C1CCN(CCn2c(=O)[nH]c3ccccc3c2=O)CC1` [KETANSERIN], in data set [2], the Hill coefficient came to 1.04.
In data set [2], `NCCc1c[nH]c2ccc(O)cc12` [SEROTONIN] registered a Hill coefficient of 1.04.
In the case of `O=C(CCCN1CCC2(CC1)C(=O)NCN2c1ccccc1)c1ccc(F)cc1` [SPIPERONE], the Ki in data set [1] stood at 602 nM. Further, the Hill coefficient in data set [2] worked out at 0.86.
